How the values were obtained:
[1] = molecular target: T1, human NLRP3 (Homo sapiens, UniProt Q96P20); experiment: Scintillation Proximity (SPA) NLRP3 Assay, displacement of 3H-MCC950; format: binding; details: for IC50: displacement of 3H-MCC950 from human NLRP3
Method in brief: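 Displacement of radioligand 3H-MCC950 (125 nM final) from 350 nM human NLRP3, read by scintillation proximity after 6 h equilibration with PVT beads. Buffer: 20 mM HEPES pH 7.5, 150 mM NaCl, 5 mM MgCl2, 100 μM ADP; compound preincubated 15 min, ligand 60 min, RT. IC50 from specific binding.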

[2] = molecular target: T1, human NLRP3; experiment: Human Whole Blood (hWB) NLRP3 Assay (LPS/ATP, IL-1β); format: cell-based; set-up: host or cells: human whole blood from healthy volunteers (A3)
Experimental: Human whole blood is drawn from healthy volunteers after obtaining written informed consent. Heparin lithium coated tubes are used to collect blood from volunteers. Blood samples are distributed on 96 well plates using 90 μl per well.
Priming procedure: Priming is performed by adding 5 μl of LPS (O26:B6; Sigma L-2654) at a final concentration of 1 μg/ml for 4.5 hours in a humidified incubator with 37° C., 5% CO2. Thirty minutes prior to NLRP3 activation, 5 μl of a 20× compound solution or vehicle (2% dimethylsulfoxide (DMSO)) is added to each well and plates were incubated on a shaker (450 rpm) in a humidified incubator with 37° C., 5% CO2.
Alternative priming procedure: Thirty minutes prior to LPS priming, 5 μl of a 20× compound solution or vehicle (2% dimethylsulfoxide (DMSO)) is added to each well and plates were incubated on a shaker (450 rpm) in a humidified incubator with 37° C., 5% CO2. Priming is performed by adding 5 μl of LPS (O26:B6; Sigma L-2654) at a final concentration of 1 μg/ml for 5 hours in a humidified incubator with 37° C., 5% CO2.
Activation is then performed by adding 3.3 μl of a 31×ATP solution per well. At the end of the 30 minutes stimulation, the plates are centrifuged (800 g, 10 min, room temperature) and the plasma from each well is frozen at −80° C. IL-1β levels in the supernatant were analyzed using a mesoscale discovery assay (MSD K151TUK) according to the manufacturers' instructions.
There is no detectable difference in assay results using the priming procedure versus the alternative priming procedure.
hWB NLRP3 IC50 assay results, as a measurement of whole blood potency, are provided in Table B. “A” activity=<1 uM; “B” activity=1-2 uM; “C” activity=>2-3 uM; “D” activity=>3 uM.

[3] = molecular target: T1, human NLRP3; experiment: Human PBMC NLRP3 Assay (LPS priming, ATP stimulation, cytokine measurement); format: cell-based; set-up: host or cells: human PBMCs (A2); human whole blood from healthy volunteers (A3); details: human PBMC, LPS + ATP
Experimental: Reagents: Human PBMCs (Normal): iXCells Cat #10HU-003; RPMI 1640 medium with GlutaMAX: ThermoFisher Cat #61870127 (Complete Media: 4.5 g/L D-glucose, 10% FBS, 100 mM NaPyr, 1% Pen/Strep, 10 mM HEPES and 0.05 mM of ®-mercaptoethanol; Assay Media: 4.5 g/L D-glucose, 100 mM NaPyr, 1% Pen/Strep, 10 mM HEPES and 0.05 mM of mercaptoethanol; 96-well V-bottom Plates: Costar Cat #3894; LPS (E. coli O26:B6): Sigma Cat #L2654, stock 5 mg/mL in PBS; ATP: Sigma Cat #A6419, prepared in a 250 mM stock in 1 M HEPES (adjusted to pH 7.4).
Cryopreserved PBMCs were rapidly thawed in a 37° C. water bath for 2 min. Cells were then centrifuged at 1200 RPM for 5 min and resuspended in ˜50 mL of fresh RPMI 1640 Complete Medium. A count was undertaken using a hemocytometer and adjusted to 2.5×10^5 cells/mL. V-shaped 96-well plates were seeded with 200 μL of PBMCs (5×10^4) per well and subsequently incubated overnight at 37° C. with 5% CO2. Assay Media was then prepared containing 100 ng/ml of LPS. PBMCs were then centrifuged at 1,200 RPM for 5 min, serum containing media was aspirated, and 150 μL/well of Assay Media+LPS was immediately added. Assay Media without LPS was added in the untreated control wells. Cells were then primed with LPS for 4 h at 37° C. with 5% CO2. A concentration response curve (CRC) was prepared of 1000× test compound in 100% DMSO. The CRC was then diluted 1:50 in Assay Media and then further diluted by 1:5× in Assay Media resulting in a final 4×CRC in 0.4% DMSO/Assay Media. 50 μL/well of 4× test compound CRC or vehicle (0.4% DMSO/Assay Media) was then transferred into each well and subsequently incubated for 30 min at 37° C. with 5% CO2. Cells were stimulated by adding 4 μL of 250 mM ATP, using a 250 mM stock prepared in 1 M Hepes without further dilution (for a final concentration of 5 mM), for 1 h at 37° C. with 5% CO2 Plates were then centrifuged at 1200 RPM for 5 min; and 50 μl of the media was transferred to a clean 96-well storage plate for cytokine measurements using the mesoscale platform, and stored at −80° C. until analyzed. Compounds were added 30 minutes before priming the cells with LPS when TNFα was required to be quantified in the cytokine panel to confirm selectivity.
PBMC NLRP3 IC50 assay results, as a measurement of cellular potency, are provided in Table B. “A” activity=<0.01 uM; “B” activity=0.01-0.1 uM; “C” activity=>0.1-0.5 uM; “D” activity=>0.5 uM.

T1 sequence (Q96P20 whole entry): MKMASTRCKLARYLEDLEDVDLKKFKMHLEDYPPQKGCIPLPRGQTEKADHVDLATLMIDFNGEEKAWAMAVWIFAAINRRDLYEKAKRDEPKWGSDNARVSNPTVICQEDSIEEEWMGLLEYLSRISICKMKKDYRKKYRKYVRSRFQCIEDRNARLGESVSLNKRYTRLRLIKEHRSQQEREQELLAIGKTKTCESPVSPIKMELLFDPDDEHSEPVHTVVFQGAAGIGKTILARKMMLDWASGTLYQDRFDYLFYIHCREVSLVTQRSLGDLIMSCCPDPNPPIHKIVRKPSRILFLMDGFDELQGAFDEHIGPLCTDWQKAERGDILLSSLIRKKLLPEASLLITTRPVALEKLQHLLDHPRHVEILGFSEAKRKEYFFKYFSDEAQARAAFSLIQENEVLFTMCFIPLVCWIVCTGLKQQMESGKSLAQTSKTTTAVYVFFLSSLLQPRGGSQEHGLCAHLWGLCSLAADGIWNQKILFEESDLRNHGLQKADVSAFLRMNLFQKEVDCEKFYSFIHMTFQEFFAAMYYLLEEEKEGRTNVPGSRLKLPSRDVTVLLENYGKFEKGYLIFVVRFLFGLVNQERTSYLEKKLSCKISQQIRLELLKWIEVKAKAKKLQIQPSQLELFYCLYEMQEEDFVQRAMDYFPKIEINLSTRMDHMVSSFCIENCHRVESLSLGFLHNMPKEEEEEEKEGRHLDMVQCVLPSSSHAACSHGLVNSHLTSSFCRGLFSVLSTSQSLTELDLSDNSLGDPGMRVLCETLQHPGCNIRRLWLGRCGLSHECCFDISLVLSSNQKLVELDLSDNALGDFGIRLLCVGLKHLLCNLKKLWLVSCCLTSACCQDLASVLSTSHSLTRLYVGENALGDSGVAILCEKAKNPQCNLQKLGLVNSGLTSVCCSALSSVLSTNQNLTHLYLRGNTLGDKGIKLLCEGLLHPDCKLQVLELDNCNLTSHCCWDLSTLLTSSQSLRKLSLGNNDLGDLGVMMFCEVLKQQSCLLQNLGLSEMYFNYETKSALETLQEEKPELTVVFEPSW

Row | IC50 ([1]; Table B, activity class) [nM] | IC50 ([1]; Table C) [nM] | IC50 ([2]; Table B, activity class) [nM] | IC50 ([2]; Table C) [nM] | IC50 ([3]; Table B, activity class) [nM] | IC50 ([3]; Table C) [nM] | fold improvement in binding activity (SPA IC50) ([1]; relative to Compound 27A*) [fold] | Compound
1 | < 1000 | 110 | < 1000 | 260 | < 10 | 7.9 | – | C[C@@H]1CCN(c2nnn[nH]2)C[C@H](NC(=O)N(C)c2ccc(OC(F)(F)F)cc2F)C1 (single isomer, unassigned) [24A*]
2 | < 1000 | – | < 1000 | – | < 10 | – | – | CCN(C(=O)N[C@@H]1C[C@H](C)CCN(c2nnn[nH]2)C1)c1ccc(OC(F)(F)F)cc1 (single isomer, unassigned) [43A*]
3 | < 1000 | – | 1000 to 2000 | – | 10 to 100 | – | – | C[C@@H]1CCN(c2nnn[nH]2)C[C@H](NC(=O)N(C)c2ccc(OC(F)F)c(F)c2F)C1 (single isomer, unassigned) [40A*]
4 | < 1000 | – | < 1000 | – | < 10 | – | – | C[C@@H]1CCN(c2nnn[nH]2)C[C@H](NC(=O)N(C)c2ccc(C3CC3)c(F)c2)C1 (single isomer, unassigned) [23A*]
5 | < 1000 | – | < 1000 | – | < 10 | – | – | C[C@@H]1CCN(c2nnn[nH]2)C[C@H](NC(=O)N(C)c2c(F)cc(OC(F)(F)F)cc2F)C1 (single isomer, unassigned) [41A*]
6 | < 1000 | – | < 1000 | – | 10 to 100 | – | – | C[C@@H]1CCN(c2nnn[nH]2)C[C@H](NC(=O)N(C)c2ccc(C(F)(F)F)c(F)c2F)C1 (single isomer, unassigned) [21A*]
7 | < 1000 | – | < 1000 | – | < 10 | – | – | C[C@@H]1CCN(c2nnn[nH]2)C[C@H](NC(=O)N(C)c2c(F)cc(C3CC3)cc2F)C1 (single isomer, unassigned) [20A*]
8 | < 1000 | – | > 3000 | – | 10 to 100 | – | – | C[C@@H]1CCN(c2nnn[nH]2)C[C@H](NC(=O)N(C)c2ccc(OC(F)(F)F)c(F)c2F)C1 (single isomer, unassigned) [26A*]
9 | < 1000 | – | 1000 to 2000 | – | – | – | – | C[C@@H]1CCN(c2nnn[nH]2)C[C@H](NC(=O)N(C)c2ccc(OC(F)(F)F)c(OC(F)F)c2)C1 (single isomer, unassigned) [25A*]
10 | 10000 to 50000 | – | > 3000 | – | – | – | – | C[C@@H]1CCN(c2nnn[nH]2)C[C@H](NC(=O)N(C)c2cnc(C(F)(F)F)cn2)C1 (single isomer, unassigned) [32A*]

The remaining lines, values behind:

Row | Compound | IC50 ([1]; Table B, activity class) [nM] | IC50 ([1]; Table C) [nM] | IC50 ([2]; Table B, activity class) [nM] | IC50 ([2]; Table C) [nM] | IC50 ([3]; Table B, activity class) [nM] | IC50 ([3]; Table C) [nM] | fold improvement in binding activity (SPA IC50) ([1]; relative to Compound 27A*) [fold]
11 | C[C@@H]1C[C@@H](NC(=O)N(C)c2ccc(OC(F)F)cc2F)[C@H]2CC[C@@H]1N2c1nnn[nH]1 (single isomer, unassigned) [57A*] | < 1000 | 199 | < 1000 | 190 | < 10 | 3.1 | –
12 | C[C@@H]1C[C@@H](NC(=O)N(C)c2ccc(OC(F)F)c(OC(F)F)c2)[C@H]2CC[C@@H]1N2c1nnn[nH]1 (single isomer, unassigned) [64A*] | < 1000 | – | < 1000 | – | 10 to 100 | – | –
13 | C[C@@H]1CCN(c2nnn[nH]2)C[C@H](NC(=O)N(C)c2ccc(OC(F)F)c(OC(F)F)c2)C1 (single isomer, unassigned) [16A*] | < 1000 | – | 1000 to 2000 | – | < 10 | – | –
14 | C[C@@H]1CCN(c2nnn[nH]2)C[C@H](NC(=O)N(C)c2ccc(OC(F)(F)F)c(F)c2)C1 (single isomer, unassigned) [14A*] | < 1000 | – | 1000 to 2000 | – | 10 to 100 | – | –
15 | C[C@@H]1C[C@@H](NC(=O)N(C)c2ccc(OC(F)F)c(F)c2)[C@H]2CC[C@@H]1N2c1nnn[nH]1 (single isomer, unassigned) [52A*] | < 1000 | – | < 1000 | – | 10 to 100 | – | –
16 | C[C@@H]1CCN(c2nnn[nH]2)C[C@H](NC(=O)N(C)c2c(F)cc(OC(F)F)cc2F)C1 (single isomer, unassigned) [19A*] | < 1000 | – | < 1000 | – | < 10 | – | –
17 | C[C@@H]1C[C@@H](NC(=O)N(C)c2ccc(C3CC3)c(F)c2)[C@H]2CC[C@@H]1N2c1nnn[nH]1 (single isomer, unassigned) [54A*] | < 1000 | – | < 1000 | – | < 10 | – | –
18 | C[C@@H]1CCN(c2nnn[nH]2)C[C@H](NC(=O)N(C)c2ccc(OC(F)F)c(F)c2)C1 (single isomer, unassigned) [15A*] | < 1000 | – | < 1000 | – | < 10 | – | –
19 | C[C@@H]1CCN(c2nnn[nH]2)C[C@H](NC(=O)N(C)c2ccc(Cl)c(F)c2)C1 (single isomer, unassigned) [12A*] | < 1000 | – | 2000 to 3000 | – | 10 to 100 | – | –
20 | C[C@@H]1CCN(c2nnn[nH]2)C[C@H](NC(=O)N(C)c2ccc(OC(F)F)cc2F)C1 (single isomer, unassigned) [17A*] | < 1000 | – | 1000 to 2000 | – | < 10 | – | –
21 | C[C@@H]1CCN(c2nnn[nH]2)C[C@H](NC(=O)N(C)c2ccc(C(F)(F)F)cc2F)C1 (single isomer, unassigned) [13A*] | < 1000 | 550 | < 1000 | 200 | < 10 | 5.6 | –
22 | C[C@@H]1C[C@@H](NC(=O)N(C)c2c(F)cc(C3CC3)cc2F)[C@H]2CC[C@@H]1N2c1nnn[nH]1 (single isomer, unassigned) [60A*] | < 1000 | – | < 1000 | – | < 10 | – | –
23 | C[C@@H]1CCN(c2nnn[nH]2)C[C@H](NC(=O)N(C)c2ccc(Cl)cc2F)C1 (single isomer, unassigned) [5A*] | < 1000 | 71 | < 1000 | 36 | < 10 | 4 | > 19
24 | C[C@@H]1C[C@@H](NC(=O)N(C)c2ccc(C3CC3)cc2)[C@H]2CC[C@@H]1N2c1nnn[nH]1 (single isomer, unassigned) [46A*] | < 1000 | – | < 1000 | – | < 10 | – | –
25 | C[C@@H]1CCN(c2nnn[nH]2)C[C@H](NC(=O)N(C)c2ccc(C(F)F)cc2F)C1 (single isomer, unassigned) [18A*] | < 1000 | – | < 1000 | – | < 10 | – | –
26 | C[C@@H]1C[C@@H](NC(=O)N(C)c2ccc(OC(F)(F)F)cc2F)[C@H]2CC[C@@H]1N2c1nnn[nH]1 (single isomer, unassigned) [56A*] | < 1000 | – | < 1000 | – | – | – | –

— patent publication US20260008768A1, “UREA DERIVATIVES FOR INHIBITING NLRP3 AND USES THEREOF” (VENTUS THERAPEUTICS U.S., INC., priority 2023, published 2026)
